Species on record: Rattus norvegicus
Experiment: DrugMatrix - Regimen: Daily Repeat
Format: toxicity, organism-based, Sprague-Dawley
Design: regimen Daily Repeat, gender Male, age 6-8 weeks
Details: in vivo, po, route oral GAVAGE, dose level Low; for ABSOLUTE BASOPHIL / ABSOLUTE EOSINOPHIL / ABSOLUTE LYMPHOCYTE / ABSOLUTE MONOCYTE / ABSOLUTE SEGMENTED NEUTROPHIL / BASOPHIL / EOSINOPHIL / ERYTHROCYTE COUNT / HEMATOCRIT / HEMOGLOBIN / LEUKOCYTE COUNT / LYMPHOCYTE / MEAN CORPUSCULAR HEMOGLOBIN / MEAN CORPUSCULAR HEMOGLOBIN CONCENTRATION / MEAN CORPUSCULAR VOLUME / MONOCYTE / NEUTROPHIL / NUCLEATED RED BLOOD CELLS / PLATELET COUNT: tissue Blood; for ALANINE AMINOTRANSFERASE / ALBUMIN / ALKALINE PHOSPHATASE / ASPARTATE AMINOTRANSFERASE / BLOOD UREA NITROGEN / CARBON DIOXIDE / CHLORIDE / CHOLESTEROL / CREATINE PHOSPHOKINASE / CREATININE / GLUCOSE / LACTATE DEHYDROGENASE / LIPASE / PHOSPHORUS / POTASSIUM / SODIUM / TOTAL BILIRUBIN / TOTAL PROTEIN / URIC ACID: tissue Plasma
[1] = 30 mg/kg, 72 h, time 3 day, vehicle .5 % CMC
[2] = 30 mg/kg, 120 h, time 5 day, vehicle .5 % CMC
[3] = 10 mg/kg, 72 h, time 3 day, […]
[4] = 10 mg/kg, 120 h, time 5 day, […]

SMILES: CC(=O)CCCCn1c(=O)c2c(ncn2C)n(C)c1=O [PENTOXIFYLLINE]
- ABSOLUTE BASOPHIL [1]: 0 CELLS/uL
- ABSOLUTE EOSINOPHIL [1]: 54.67 CELLS/uL
- ABSOLUTE LYMPHOCYTE [1]: 16028 CELLS/uL
- ABSOLUTE MONOCYTE [1]: 106.67 CELLS/uL
- ABSOLUTE SEGMENTED NEUTROPHIL [1]: 1677.33 CELLS/uL
- BASOPHIL [1]: 0%
- EOSINOPHIL [1]: 0.33%
- ERYTHROCYTE COUNT [1]: 4.93 x10E6/uL
- HEMATOCRIT [1]: 32.23%
- HEMOGLOBIN [1]: 12.6 G/DL
- LEUKOCYTE COUNT [1]: 17.87 x10E3/uL
- LYMPHOCYTE [1]: 89.67%
- MEAN CORPUSCULAR HEMOGLOBIN [1]: 25.6 pg
- MEAN CORPUSCULAR HEMOGLOBIN CONCENTRATION [1]: 39.1 G/DL
- MEAN CORPUSCULAR VOLUME [1]: 65.47 fL
- MONOCYTE [1]: 0.67%
- NEUTROPHIL [1]: 9.33%
- NUCLEATED RED BLOOD CELLS [1]: 0.33 /100WBC
- PLATELET COUNT [1]: 1350 x10E3/uL
- ALANINE AMINOTRANSFERASE [1]: 62.33 u/L
- ALBUMIN [1]: 4.27 G/DL
- ALKALINE PHOSPHATASE [1]: 546.33 u/L
- ASPARTATE AMINOTRANSFERASE [1]: 100.33 u/L
- BLOOD UREA NITROGEN [1]: 17.33 mg/dL
- CARBON DIOXIDE [1]: 24.67 mmol/L
- CHLORIDE [1]: 107.67 MEQ/L
- CHOLESTEROL [1]: 71 mg/dL
- CREATINE PHOSPHOKINASE [1]: 318.67 u/L
- CREATININE [1]: 0.21 mg/dL
- GLUCOSE [1]: 160.67 mg/dL
- LACTATE DEHYDROGENASE [1]: 438.67 u/L
- LIPASE [1]: 10 u/L
- PHOSPHORUS [1]: 13.7 mg/dL
- POTASSIUM [1]: 6.67 MEQ/L
- SODIUM [1]: 149.33 MEQ/L
- TOTAL BILIRUBIN [1]: 0.2 mg/dL
- TOTAL PROTEIN [1]: 5.87 G/DL
- URIC ACID [1]: 1.47 mg/dL
- ABSOLUTE BASOPHIL [2]: 0 CELLS/uL
- ABSOLUTE EOSINOPHIL [2]: 0 CELLS/uL
- ABSOLUTE LYMPHOCYTE [2]: 10793.33 CELLS/uL
- ABSOLUTE MONOCYTE [2]: 47.67 CELLS/uL
- ABSOLUTE SEGMENTED NEUTROPHIL [2]: 492.33 CELLS/uL
- BASOPHIL [2]: 0%
- EOSINOPHIL [2]: 0%
- ERYTHROCYTE COUNT [2]: 5.84 x10E6/uL
- HEMATOCRIT [2]: 36.73%
- HEMOGLOBIN [2]: 13.57 G/DL
- LEUKOCYTE COUNT [2]: 11.33 x10E3/uL
- LYMPHOCYTE [2]: 95.33%
- MEAN CORPUSCULAR HEMOGLOBIN [2]: 23.23 pg
- MEAN CORPUSCULAR HEMOGLOBIN CONCENTRATION [2]: 36.97 G/DL
- MEAN CORPUSCULAR VOLUME [2]: 62.93 fL
- MONOCYTE [2]: 0.33%
- NEUTROPHIL [2]: 4.33%
- NUCLEATED RED BLOOD CELLS [2]: 0.33 /100WBC
- PLATELET COUNT [2]: 1319.67 x10E3/uL
- ALANINE AMINOTRANSFERASE [2]: 45 u/L
- ALBUMIN [2]: 4.5 G/DL
- ALKALINE PHOSPHATASE [2]: 368 u/L
- ASPARTATE AMINOTRANSFERASE [2]: 79.67 u/L
- BLOOD UREA NITROGEN [2]: 18.33 mg/dL
- CARBON DIOXIDE [2]: 23 mmol/L
- CHLORIDE [2]: 105.33 MEQ/L
- CHOLESTEROL [2]: 65 mg/dL
- CREATINE PHOSPHOKINASE [2]: 458.33 u/L
- CREATININE [2]: 0.21 mg/dL
- GLUCOSE [2]: 166 mg/dL
- LACTATE DEHYDROGENASE [2]: 154.67 u/L
- LIPASE [2]: 10.33 u/L
- PHOSPHORUS [2]: 13.7 mg/dL
- POTASSIUM [2]: 7.08 MEQ/L
- SODIUM [2]: 148.67 MEQ/L
- TOTAL BILIRUBIN [2]: 0.2 mg/dL
- TOTAL PROTEIN [2]: 6.43 G/DL
- URIC ACID [2]: 2.37 mg/dL

SMILES: CN1CCN2c3ccccc3Cc3ccccc3C2C1 (stereo not drawn) [MIANSERIN]
- ABSOLUTE BASOPHIL [3]: 0 CELLS/uL
- ABSOLUTE EOSINOPHIL [3]: 54.33 CELLS/uL
- ABSOLUTE LYMPHOCYTE [3]: 11772.33 CELLS/uL
- ABSOLUTE MONOCYTE [3]: 287.33 CELLS/uL
- ABSOLUTE SEGMENTED NEUTROPHIL [3]: 1319.33 CELLS/uL
- BASOPHIL [3]: 0%
- EOSINOPHIL [3]: 0.33%
- HEMATOCRIT [3]: 34.47%
- HEMOGLOBIN [3]: 13.1 G/DL
- LEUKOCYTE COUNT [3]: 13.43 x10E3/uL
- LYMPHOCYTE [3]: 88.33%
- MEAN CORPUSCULAR HEMOGLOBIN [3]: 23.57 pg
- MEAN CORPUSCULAR HEMOGLOBIN CONCENTRATION [3]: 38 G/DL
- MEAN CORPUSCULAR VOLUME [3]: 61.97 fL
- MONOCYTE [3]: 2%
- NEUTROPHIL [3]: 9.33%
- NUCLEATED RED BLOOD CELLS [3]: 0 /100WBC
- PLATELET COUNT [3]: 1172 x10E3/uL
- ALANINE AMINOTRANSFERASE [3]: 74.67 u/L
- ALBUMIN [3]: 4.4 G/DL
- ALKALINE PHOSPHATASE [3]: 433.33 u/L
- ASPARTATE AMINOTRANSFERASE [3]: 111 u/L
- BLOOD UREA NITROGEN [3]: 16.33 mg/dL
- CARBON DIOXIDE [3]: 20.67 mmol/L
- CHLORIDE [3]: 107 MEQ/L
- CHOLESTEROL [3]: 81 mg/dL
- CREATINE PHOSPHOKINASE [3]: 603 u/L
- CREATININE [3]: 0.28 mg/dL
- GLUCOSE [3]: 162.67 mg/dL
- LIPASE [3]: 12 u/L
- PHOSPHORUS [3]: 12.3 mg/dL
- POTASSIUM [3]: 6.52 MEQ/L
- SODIUM [3]: 150.33 MEQ/L
- TOTAL BILIRUBIN [3]: 0.27 mg/dL
- TOTAL PROTEIN [3]: 6.23 G/DL
- URIC ACID [3]: 1.93 mg/dL
- ABSOLUTE BASOPHIL [4]: 0 CELLS/uL
- ABSOLUTE EOSINOPHIL [4]: 0 CELLS/uL
- ABSOLUTE LYMPHOCYTE [4]: 13210.67 CELLS/uL
- ABSOLUTE MONOCYTE [4]: 71.33 CELLS/uL
- ABSOLUTE SEGMENTED NEUTROPHIL [4]: 1118 CELLS/uL
- BASOPHIL [4]: 0%
- EOSINOPHIL [4]: 0%
- HEMATOCRIT [4]: 37.27%
- HEMOGLOBIN [4]: 13.67 G/DL
- LEUKOCYTE COUNT [4]: 14.4 x10E3/uL
- LYMPHOCYTE [4]: 92%
- MEAN CORPUSCULAR HEMOGLOBIN [4]: 23.9 pg
- MEAN CORPUSCULAR HEMOGLOBIN CONCENTRATION [4]: 36.73 G/DL
- MEAN CORPUSCULAR VOLUME [4]: 65.03 fL
- MONOCYTE [4]: 0.33%
- NEUTROPHIL [4]: 7.67%
- NUCLEATED RED BLOOD CELLS [4]: 0 /100WBC
- PLATELET COUNT [4]: 1241.33 x10E3/uL
- ALANINE AMINOTRANSFERASE [4]: 77.67 u/L
- ALBUMIN [4]: 4.3 G/DL
- ALKALINE PHOSPHATASE [4]: 439.33 u/L
- ASPARTATE AMINOTRANSFERASE [4]: 87.33 u/L
- BLOOD UREA NITROGEN [4]: 16.67 mg/dL
- CARBON DIOXIDE [4]: 24.67 mmol/L
- CHLORIDE [4]: 105.33 MEQ/L
- CHOLESTEROL [4]: 62 mg/dL
- CREATINE PHOSPHOKINASE [4]: 238.33 u/L
- CREATININE [4]: 0.16 mg/dL
- GLUCOSE [4]: 176.33 mg/dL
- LIPASE [4]: 11 u/L
- PHOSPHORUS [4]: 13.77 mg/dL
- POTASSIUM [4]: 7.05 MEQ/L
- SODIUM [4]: 148.43 MEQ/L
- TOTAL BILIRUBIN [4]: 0.23 mg/dL
- TOTAL PROTEIN [4]: 6.13 G/DL
- URIC ACID [4]: 2.37 mg/dL

— ChEMBL document CHEMBL3885881, “DrugMatrix”
